Inhibition data for 19 compounds are collected here from patent US9458133B2, “Isoquinolines as potassium ion channel inhibitors” (BRISTOL-MYERS SQUIBB COMPANY, priority 2013, dated 2016).

Molecules are shown by their SMILES.

The target in this test is T1, human Kv 1.5 (Homo sapiens, UniProt P22460).
T1 construct: expressed in transfected cells; host or cells: mouse L-929 fibroblasts stably expressing human Kv1.5
T1 sequence (P22460 whole entry): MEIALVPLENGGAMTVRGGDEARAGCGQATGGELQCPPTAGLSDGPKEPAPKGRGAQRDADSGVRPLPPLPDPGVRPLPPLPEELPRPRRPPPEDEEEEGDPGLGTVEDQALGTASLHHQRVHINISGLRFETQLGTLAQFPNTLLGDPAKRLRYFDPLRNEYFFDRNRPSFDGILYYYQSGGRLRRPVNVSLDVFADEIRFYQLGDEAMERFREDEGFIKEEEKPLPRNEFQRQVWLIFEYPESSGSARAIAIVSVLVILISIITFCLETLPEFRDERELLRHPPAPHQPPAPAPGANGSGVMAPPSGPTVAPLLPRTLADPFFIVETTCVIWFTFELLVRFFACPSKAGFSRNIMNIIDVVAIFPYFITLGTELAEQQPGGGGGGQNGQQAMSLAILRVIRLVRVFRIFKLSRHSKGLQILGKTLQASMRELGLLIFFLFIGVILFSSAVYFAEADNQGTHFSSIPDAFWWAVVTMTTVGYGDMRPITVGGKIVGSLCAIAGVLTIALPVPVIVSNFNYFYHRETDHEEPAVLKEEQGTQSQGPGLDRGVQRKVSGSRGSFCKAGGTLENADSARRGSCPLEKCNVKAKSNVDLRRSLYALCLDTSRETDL
Briefly: Block of IKur current in patch clamped L-929 cells stably expressing human Kv1.5. The test is classed as cell-based. As to conditions: L929, 0.3 μM; patch clamped mammalian L-929 cells expressing human Kv1.5 (IKur); read-out: KV1_5% Inh L929 @0.3 μM. The source says:
Synders, D. J. et al., “A rapidly activating and slowly inactivating potassium channel cloned from human heart: functional analysis after stable mammalian cell culture expression”, J. Gen. Physiol., 101:513-543 (1993). […]
(The patch-clamp technique gives a direct electrical read-out from membranes.)
On to `N#Cc1ccc(-c2c(Cl)nc(NCc3ccccn3)c3c(-c4ccccc4)cccc23)cc1` [Example 56, 4-(3-chloro-8-phenyl-1-(pyridin-2-ylmethylamino)isoquinolin-4-yl)benzonitrile], for which the inhibition at 0.3 µM amounted to 89.7%.

As for `NS(=O)(=O)c1ccc(-c2c(Cl)nc(NCc3ccccn3)c3c(-c4ccccc4)cccc23)cc1` [Example 55, 4-(3-chloro-8-phenyl-1-(pyridin-2-ylmethylamino)isoquinolin-4-yl)benzenesulfonamide], the inhibition at 0.3 µM is 97.6%.

With `Nc1ccc(-c2cc3cccc(-c4ccccc4)c3c(NCc3ccccn3)n2)cn1` [Example 58, 3-(6-aminopyridin-3-yl)-8-phenyl-N-(pyridin-2-ylmethyl)isoquinolin-1-amine], the inhibition at 0.3 µM stood at 22.8%. Take `C1=C(c2cnc(NCc3ccccc3)c3c(-c4ccccc4)cccc23)CCOC1` [Example 28, N-benzyl-4-(3,6-dihydro-2H-pyran-4-yl)-8-phenylisoquinolin-1-amine]: the inhibition at 0.3 µM was determined as 76.1%. Under `NS(=O)(=O)c1cncc(-c2c(Cl)nc(NCc3ccccn3)c3c(-c4ccccc4)cccc23)c1` [Example 10, 5-(3-Chloro-8-phenyl-1-(pyridin-2-ylmethylamino)isoquinolin-4-yl)pyridine-3-sulfonamide] stands 99%; under `CS(=O)(=O)Nc1cccc(-c2c(Cl)nc(NCc3ccccn3)c3c(-c4ccccc4)cccc23)c1` [Example 70, N-(3-(3-chloro-8-phenyl-1-(pyridin-2-ylmethylamino)isoquinolin-4-yl)phenyl)methanesulfonamide], 95.7%. Under `NS(=O)(=O)c1cncc(-c2cnc(NCc3ccccc3)c3c(-c4ccccc4)cccc23)c1` [Example 15, 5-(1-(Benzylamino)-8-phenylisoquinolin-4-yl)pyridine-3-sulfonamide] stands 96.2%; under `CNS(=O)(=O)c1cccc(-c2cc3cccc(-c4ccccc4)c3c(NCc3ccccn3)n2)c1` [Example 34, N-methyl-3-(8-phenyl-1-(pyridin-2-ylmethylamino)isoquinolin-3-yl)benzenesulfonamide], 93.5%; under `Cc1cnc(CNc2nc(-c3cncc(S(N)(=O)=O)c3)cc3cccc(-c4ccccc4)c23)cn1` [Example 74, 5-(1-((5-methylpyrazin-2-yl)methylamino)-8-phenylisoquinolin-3-yl)pyridine-3-sulfonamide], 79.5%. Under `NC(=O)Nc1cncc(-c2c(Cl)nc(NCc3ccccn3)c3c(-c4ccccc4)cccc23)c1` [Example 48, 1-(5-(3-chloro-8-phenyl-1-(pyridin-2-ylmethylamino)isoquinolin-4-yl)pyridin-3-yl)urea] stands 98.6%; under `COc1cc(-c2c(Cl)nc(NCc3ccccn3)c3c(-c4ccccc4)cccc23)ccn1` [Example 62, 3-chloro-4-(2-methoxypyridin-4-yl)-8-phenyl-N-(pyridin-2-ylmethyl)isoquinolin-1-amine], 95.6%; under `Cc1cc(C)cc(CNc2nc(-c3cncc(S(N)(=O)=O)c3)cc3cccc(-c4ccccc4)c23)c1` [Example 53, 5-(1-(3,5-dimethylbenzylamino)-8-phenylisoquinolin-3-yl)pyridine-3-sulfonamide], 40.1%.

With `CS(=O)(=O)Nc1cncc(-c2c(Cl)nc(NCc3ccccn3)c3c(-c4ccccc4)cccc23)c1` [Example 47, N-(5-(3-chloro-8-phenyl-1-(pyridin-2-ylmethylamino)isoquinolin-4-yl)pyridin-3-yl)methanesulfonamide], the inhibition at 0.3 µM was 98.1%. Then `NS(=O)(=O)c1cncc(-c2cc3cccc(-c4ccc(F)cc4)c3c(NCc3ccccn3)n2)c1` [Example 21, 5-(8-(4-fluorophenyl)-1-(pyridin-2-ylmethylamino)isoquinolin-3-yl)pyridine-3-sulfonamide], with 50.6%.

Regarding `N#Cc1cccc(-c2cc3cccc(-c4ccccc4)c3c(NCc3ccccn3)n2)c1` [Example 39, 3-(8-phenyl-1-(pyridin-2-ylmethylamino)isoquinolin-3-yl)benzonitrile], the inhibition at 0.3 µM is 66.8%. Under `NS(=O)(=O)c1ccc(-c2cnc(NCc3ccccn3)c3c(-c4ccccc4)cccc23)cc1` [Example 76, 4-(8-phenyl-1-(pyridin-2-ylmethylamino)isoquinolin-4-yl)benzenesulfonamide] stands 97.2%; under `N#Cc1ccc(-c2cc3cccc(-c4ccccc4)c3c(NCc3ccccn3)n2)cc1` [Example 40, 4-(8-phenyl-1-(pyridin-2-ylmethylamino)isoquinolin-3-yl)benzonitrile], 92.3%; under `CC(=O)Nc1cccc(-c2c(Cl)nc(NCc3ccccn3)c3c(-c4ccccc4)cccc23)c1` [Example 60, N-(3-(3-chloro-8-phenyl-1-(pyridin-2-ylmethylamino)isoquinolin-4-yl)phenyl)acetamide], 96.2%. Under `NS(=O)(=O)c1cncc(-c2cc3cccc(-c4ccccc4)c3c(NCCOc3ccccc3)n2)c1` [Example 52, 5-(1-(2-phenoxyethylamino)-8-phenylisoquinolin-3-yl)pyridine-3-sulfonamide] stands 55.8%.
